Test results as given in the OPERA property sets (Mansouri et al. 2018).

Compound | boiling point | melting point | log10 vapour pressure (mmHg) | ready biodegradability | log10 Henry constant (atm·m³/mol) | log10 Koc (L/kg) | log10 biodegradation half-life (days) | log10 Koa
CSc1ccc(N)cc1 | 272 °C | – | – | – | – | – | – | –
OCC1O[C@@H](Oc2ccccc2)[C@H](O)[C@@H](O)[C@H]1O (stereo partly drawn) | – | 166 °C | – | – | – | – | – | –
CC(Cl)(Cl)C(Cl)Cl | 153 °C | – | – | – | – | – | – | –
CCOP(=S)(OCC)SC(CCl)N1C(=O)c2ccccc2C1=O (stereo not drawn) | – | 68 °C | -7.21 | – | – | – | – | –
CCCCCCCC(=O)N(CCO)CCO | – | – | – | readily biodegradable | – | – | – | –
O=c1[nH]c2ccccc2n1CCCN1CCC(n2c(=O)[nH]c3cc(Cl)ccc32)CC1 | – | 242 °C | – | – | – | – | – | –
Oc1ccc(-c2ccc(O)cc2)cc1 | – | 283 °C | – | not readily biodegradable | – | – | – | –
CCCN(CCC)c1c([N+](=O)[O-])cc(C)cc1[N+](=O)[O-] | – | 80 °C | – | – | – | – | – | –
CC(C)OC(=O)C1(S(=O)(=O)c2ccc([N+](=O)[O-])cc2)CCCCCC1 | – | 83.5 °C | – | – | – | – | – | –
COc1cccc(C(=O)O)c1 | – | 107 °C | – | readily biodegradable | – | – | – | –
C=C(C)CCC=C(C)C | 143 °C | -70 °C | – | – | – | – | – | –
Clc1cccc(Cl)n1 | 211 °C | 88 °C | – | not readily biodegradable | – | – | – | –
CC(C)C(c1ccccc1)C(C)C | 221 °C | -24.5 °C | – | – | – | – | – | –
CCC(C)CCCC(C)C (stereo not drawn) | 160 °C | – | 0.469 | – | – | – | – | –
COc1cccc(Cl)c1Cl | – | 32 °C | – | – | – | – | – | –
OC(C(F)(F)F)C(F)(F)F | 59 °C | -4 °C | 2.2 | not readily biodegradable | -4.37 | – | – | –
CC(C)(C)Oc1ccccc1 | 186 °C | -24 °C | – | – | – | – | – | –
CC(C)(C)C(=O)OCOC(=O)[C@@H]1N2C(=O)[C@@H](N=CN3CCCCCC3)[C@H]2SC1(C)C | – | 119 °C | – | – | – | – | – | –
CN(C)CC/C=C1\c2ccccc2Sc2ccc(Cl)cc21 | – | 97.5 °C | – | – | – | – | – | –
Nc1c(Cl)c(Cl)cc(Cl)c1Cl | – | 107 °C | – | – | – | 3.94 | – | –
COC(=O)[C@]1(C)CCC[C@@]2(C)[C@H]1CC=C1C=C(C(C)C)CC[C@@H]12 | 362 °C | – | – | – | – | – | – | –

Compound | boiling point | melting point | log10 vapour pressure (mmHg) | ready biodegradability | log10 Henry constant (atm·m³/mol) | log10 Koc (L/kg) | log10 biodegradation half-life (days) | log10 Koa
ClCBr | 68 °C | -87.9 °C | 2.15 | not readily biodegradable | – | – | – | –
O[C@@H]1CCCC[C@H]1Cl | – | 29 °C | – | – | – | – | – | –
NS(=O)(=O)c1ccc(S(=O)(=O)CCCO)cc1 | – | 150 °C | – | – | – | – | – | –
CCOB(OCC)OCC | 120 °C | -84.8 °C | 1.22 | – | – | – | – | –
CCCCCCCCOCCCCCCCC | 283 °C | -7.6 °C | – | readily biodegradable | – | – | – | –
CN(C)CC(O)c1ccc(O)c(O)c1 (stereo not drawn) | – | 149 °C | – | – | – | – | – | –
CCCCCC(C)(C)C | 133 °C | -113 °C | 1.03 | – | – | – | 0.778 | –
Cc1ccccc1C#N | 205 °C | -13.5 °C | -0.348 | – | – | – | – | –
Nc1ccc2c(n1)[nH]c1ccccc12 | – | 202 °C | – | – | – | – | – | –
O=CC[C@@H](O)C(O)[C@H](O)CO (stereo in doubt) | – | 146 °C | – | – | – | – | – | –
CCC(=O)F | 44 °C | – | – | – | – | – | – | –
CCCC(O)CC (stereo not drawn) | – | – | – | not readily biodegradable | – | – | – | –
COc1c(N)cccc1[N+](=O)[O-] | – | – | – | not readily biodegradable | – | – | – | –
COc1cc2c(cc1O)CCN[C@@H]2C | – | 222 °C | – | – | – | – | – | –
Cc1[nH]c(=O)n(C(C)(C)C)c(=O)c1Cl | – | 176 °C | -6.33 | not readily biodegradable | – | 1.66 | – | –
CC/C=C\C/C=C\C/C=C\CCCCCCCC(=O)O | – | -16.5 °C | -6.27 | readily biodegradable | – | – | – | –
CCC(C)(C)S | 99.1 °C | – | 1.68 | – | – | – | – | –
Cn1cnc2ncnc-2c1N | – | – | -11.8 | – | – | – | – | –
Clc1cc(Cl)c(-c2c(Cl)c(Cl)cc(Cl)c2Cl)c(Cl)c1Cl | – | – | – | – | -4.77 | – | – | –
Cc1ccccc1NC(N)=S | – | 162 °C | – | – | – | – | – | –
NNC(=O)Nc1ccccc1 | – | 128 °C | – | – | – | – | – | –

Compound | boiling point | melting point | log10 vapour pressure (mmHg) | ready biodegradability | log10 Henry constant (atm·m³/mol) | log10 Koc (L/kg) | log10 biodegradation half-life (days) | log10 Koa
COc1cc(OC)nc(Sc2cccc(Cl)c2C(=O)O)n1 | – | 150 °C | – | – | – | – | – | –
CCCCOCC(C)O (stereo not drawn) | 172 °C | – | – | readily biodegradable | – | – | – | –
Nc1ccc(Cl)cc1C(=O)O | – | – | – | not readily biodegradable | – | – | – | –
CCC(CC)CO | 147 °C | – | 0.185 | – | – | – | – | –
Oc1c(I)cc(I)cc1I | – | 160 °C | – | – | – | – | – | –
CCN(C(=O)SCc1ccccc1)C(C)C(C)C (stereo not drawn) | – | – | -5.12 | – | – | – | – | –
CCCCCCCCCCCCC(=O)O | 312 °C | 44.5 °C | -4.9 | – | – | – | – | –
C=CC12CN(C)C3C4COC(CC41)[C@]1(C(=O)Nc4ccccc41)C32 (stereo partly drawn) | – | 178 °C | – | – | – | – | – | –
CC1CC(C)(C)CC1=O (stereo not drawn) | 160 °C | -25.6 °C | – | – | – | – | – | –
CC(C)(OO)c1ccccc1 | – | -9 °C | -2.49 | not readily biodegradable | – | – | – | –
FC(F)(F)C(F)(F)C(F)(F)C(F)(F)C(F)(F)C(F)(F)C(F)(F)Br | 118 °C | – | – | – | – | – | – | –
CCOC(=O)Nc1ccc2c(c1)N(C(=O)CCN1CCOCC1)c1ccccc1S2 | – | 156 °C | – | – | – | – | – | –
CCCCC(CC)COP(=O)(Oc1ccccc1)Oc1ccccc1 (stereo not drawn) | 375 °C | -54 °C | -4.3 | not readily biodegradable | -4.27 | – | – | –
COc1ccc(C=O)c(OC)c1 | 290 °C | 72 °C | – | – | – | – | – | –
CCCCCCc1ccc2c(c1)CCC2 | 292 °C | -34 °C | – | – | – | – | – | –
N[C@H](Cc1ccccc1)c1ccccc1 | 311 °C | – | – | – | – | – | – | –
C#CCO | 114 °C | -51.8 °C | 1.19 | readily biodegradable | – | – | – | –
CCOP(=O)(OCC)OP(=O)(OCC)OCC | – | – | -3.58 | – | – | – | – | –
OCCCCCCCCCO | – | 45.8 °C | – | – | – | – | – | –
Clc1cc2c(oc3c(Cl)c(Cl)c(Cl)c(Cl)c32)c(Cl)c1Cl | – | 233 °C | -10.5 | – | – | – | – | 11.2
O=S(=O)(Cl)c1ccc(Br)cc1 | – | 76 °C | – | – | – | – | – | –
